Measured values: patent publication US12371454B2, “Cyclic peptide compound having Kras inhibitory action” (priority 2019, dated 2025)
Positions of bridges follow the written chain, without caps; N, C: chain ends. Non-standard residues stand in square brackets, D forms with d. Residues, ends and D or L forms follow the SMILES beside them. *: point of attachment. hPhe(3,5-F2-4-CF3) = N[C@@H](CCc1cc(F)c(C(F)(F)F)c(F)c1)C(=O)O; hPhe(3-Cl-4-CF3) = N[C@@H](CCc1ccc(C(F)(F)F)c(Cl)c1)C(=O)O; Piperazinyl(4-(3-oxetanyl)) = C1OCC1N1CCN(*)CC1; NMePhe(4-Me) = CN[C@@H](Cc1ccc(C)cc1)C(=O)O; NMeGly(cPent) = CN[C@H](C(=O)O)C1CCCC1; NMeCha = CN[C@@H](CC1CCCCC1)C(=O)O; NEtLeu = CCN[C@@H](CC(C)C)C(=O)O; NMeChg = CN[C@H](C(=O)O)C1CCCCC1; NMeI = CC[C@H](C)[C@H](NC)C(=O)O; Piperidide(4-Me) = CC1CCN(*)CC1; NMeD = CN[C@@H](CC(=O)O)C(=O)O; NMeL = CN[C@@H](CC(C)C)C(=O)O; Oxazolidin(3-yl) = C1CN(*)CO1; NMeNva = CCC[C@H](NC)C(=O)O; NMeV = CN[C@H](C(=O)O)C(C)C; d(β3hA) = C[C@@H](N)CC(=O)O; dIva = CC[C@@](C)(N)C(=O)O; Morpholide = C1CN(*)CCO1; NMeA = CN[C@@H](C)C(=O)O; Piperidide = C1CCN(*)CC1; Pyrrolidide = C1CCN(*)C1; Ac5c = NC1(C(=O)O)CCCC1; Aze = O=C(O)[C@@H]1CCN1; X14 = CC1(C)CCN(*)C1; Sar = CNCC(=O)O

How the values were obtained:
[1] = test system: Human pancreatic cancer cell line AsPC-1; assay: Measurement of AsPC-1 cell growth inhibition (AsPC-1 CGI); format: cell-based; conditions: 96 h
Outline: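 AsPC-1 cells in 15% FBS RPMI-1640 were exposed to test compound for 96 hours at 37° C, with CellTiter-Glo as endpoint.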

[2] = target: T1, Kras and SOS1 (biotin-tagged human Kras loaded with GDP, His-tagged human SOS1) (Homo sapiens, UniProt P01116, G12D); assay: Protein-protein interaction inhibition between Kras and SOS1 (KrasGl2D-SOS PPI) using AlphaScreen; format: binding; conditions: AlphaScreen; biotin-tagged human Kras loaded with GDP, His-tagged human SOS1; read-out: KRAS G12D-SOS PPI IC50
T1 construct: made in house; host or cells: E. coli (stated for Kras only)
T1 sequence (P01116 1-188 isoform P01116-2 G12D): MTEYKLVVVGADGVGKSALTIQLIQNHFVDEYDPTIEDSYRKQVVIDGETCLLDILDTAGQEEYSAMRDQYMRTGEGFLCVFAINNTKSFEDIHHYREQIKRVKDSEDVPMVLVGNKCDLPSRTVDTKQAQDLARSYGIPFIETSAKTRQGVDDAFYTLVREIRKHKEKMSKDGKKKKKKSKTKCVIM
Outline: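 Energy transfer from nickel-chelate donor beads bound to His-SOS1 to streptavidin acceptor beads bound to biotin-Kras, expressed in E. coli and loaded with GDP after purification, was monitored. Donors were excited at 680 nm; singlet oxygen reaching acceptors gave emission read at 520-620 nm.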

Row | Compound | IC50 [1] | IC50 [2]
1 | CC[C@H](C)[C@@H]1NC(=O)[C@H](CC(C)C)N(C)C(=O)C[C@@H](C(=O)N2CCCCC2)N(C)C(=O)[C@H](C(C)C)N(C)C(=O)[C@@](C)(CC)NC(=O)[C@@H]2CCCN2C(=O)[C@H](CCc2ccc(C(F)(F)F)c(Cl)c2)NC(=O)CN(C)C(=O)[C@H](CC2CCCCC2)N(C)C(=O)CN(C)C(=O)CN(C)C1=O [Compound 1130] ([NMeL]I[Sar][Sar][NMeCha][Sar][hPhe(3-Cl-4-CF3)]P[dIva][NMeV][NMeD]-Piperidide; lactam N-11) | 100 to 500 nM | 4.4 nM
2 | CC[C@H](C)[C@@H]1NC(=O)[C@H](CC(C)C)N(C)C(=O)C[C@@H](C(=O)N2CCC(C)(C)C2)N(C)C(=O)[C@H](C2CCCCC2)N(C)C(=O)C2(CCCC2)NC(=O)[C@@H]2CCCN2C(=O)[C@H](CCc2ccc(C(F)(F)F)c(Cl)c2)NC(=O)CN(C)C(=O)[C@H](CC2CCCCC2)N(C)C(=O)CN(C)C(=O)CN(C)C1=O [Compound 1150] ([NMeL]I[Sar][Sar][NMeCha][Sar][hPhe(3-Cl-4-CF3)]P[Ac5c][NMeChg][NMeD]-X14; lactam N-11) | 50 to 100 nM | 0.52 nM
3 | CC[C@H](C)[C@@H]1NC(=O)[C@H](CC(C)C)N(C)C(=O)C[C@@H](C)NC(=O)[C@H](C2CCCC2)N(C)C(=O)C2(CCCC2)NC(=O)[C@H](C)N(C)C(=O)[C@H](CCc2ccc(C(F)(F)F)c(Cl)c2)NC(=O)CN(C)C(=O)[C@H](Cc2ccc(C)cc2)N(C)C(=O)[C@@H]2CCN2C(=O)[C@H](C)N(C)C1=O [Compound 1153] (cyclo([Ac5c][NMeGly(cPent)][d(β3hA)][NMeL]I[NMeA][Aze][NMePhe(4-Me)][Sar][hPhe(3-Cl-4-CF3)][NMeA])) | 100 to 500 nM | 2.5 nM
4 | CC[C@H](C)[C@@H]1NC(=O)[C@H](CC(C)C)N(C)C(=O)C[C@@H](C(=O)N2CCC(C)CC2)NC(=O)[C@H]([C@@H](C)CC)N(C)C(=O)C2(CCCC2)NC(=O)[C@@H]2CCCN2C(=O)[C@H](CCc2ccc(C(F)(F)F)c(Cl)c2)NC(=O)CN(C)C(=O)[C@H](CC2CCCCC2)N(C)C(=O)CN(C)C(=O)CN(C)C1=O [Compound 1172] ([NMeL]I[Sar][Sar][NMeCha][Sar][hPhe(3-Cl-4-CF3)]P[Ac5c][NMeI]D-{Piperidide(4-Me)}; lactam N-11) | 100 to 500 nM | 6.8 nM
5 | CC[C@H](C)[C@@H]1NC(=O)[C@H](CC(C)C)N(C)C(=O)C[C@@H](C(=O)N2CCOCC2)N(C)C(=O)[C@H](C(C)C)N(C)C(=O)C2(CCCC2)NC(=O)[C@@H]2CCCN2C(=O)[C@H](CCc2ccc(C(F)(F)F)c(Cl)c2)NC(=O)CN(C)C(=O)[C@H](CC2CCCCC2)N(C)C(=O)[C@@H]2CCN2C(=O)[C@H](C)N(C)C1=O [Compound 1178] ([NMeL]I[NMeA][Aze][NMeCha][Sar][hPhe(3-Cl-4-CF3)]P[Ac5c][NMeV][NMeD]-Morpholide; lactam N-11) | 50 to 100 nM | 1 nM
6 | CC[C@H](C)[C@@H]1NC(=O)[C@H](CC(C)C)N(C)C(=O)C[C@@H](C(=O)N2CCOC2)N(C)C(=O)[C@H](C2CCCCC2)N(C)C(=O)C2(CCCC2)NC(=O)[C@@H]2CCCN2C(=O)[C@H](CCc2ccc(C(F)(F)F)c(Cl)c2)NC(=O)CN(C)C(=O)[C@H](CC2CCCCC2)N(C)C(=O)CN(C)C(=O)CN(C)C1=O [Compound 1180] ([NMeL]I[Sar][Sar][NMeCha][Sar][hPhe(3-Cl-4-CF3)]P[Ac5c][NMeChg][NMeD]-{Oxazolidin(3-yl)}; lactam N-11) | 50 to 100 nM | 0.5 nM
7 | CC[C@H](C)[C@@H]1NC(=O)[C@H](CC(C)C)N(C)C(=O)C[C@@H](C(=O)N2CCN(C3COC3)CC2)N(C)C(=O)[C@H](C(C)C)N(C)C(=O)C2(CCCC2)NC(=O)[C@@H]2CCCN2C(=O)[C@H](CCc2ccc(C(F)(F)F)c(Cl)c2)NC(=O)CN(C)C(=O)[C@H](CC2CCCCC2)N(C)C(=O)[C@@H]2CCN2C(=O)[C@H](C)N(C)C1=O [Compound 1181] ([NMeL]I[NMeA][Aze][NMeCha][Sar][hPhe(3-Cl-4-CF3)]P[Ac5c][NMeV][NMeD]-{Piperazinyl(4-(3-oxetanyl))}; lactam N-11) | 100 to 500 nM | 6 nM
8 | CC[C@H](C)[C@@H]1NC(=O)[C@H](CC(C)C)N(CC)C(=O)C[C@@H](C(=O)N2CCOCC2)N(C)C(=O)[C@H](C2CCCCC2)N(C)C(=O)C2(CCCC2)NC(=O)[C@@H]2CCCN2C(=O)[C@H](CCc2ccc(C(F)(F)F)c(Cl)c2)NC(=O)CN(C)C(=O)[C@H](CC2CCCCC2)N(C)C(=O)CN(C)C(=O)CN(C)C1=O [Compound 1189] ([NEtLeu]I[Sar][Sar][NMeCha][Sar][hPhe(3-Cl-4-CF3)]P[Ac5c][NMeChg][NMeD]-Morpholide; lactam N-11) | 50 to 100 nM | 0.74 nM
9 | CCC[C@H]1C(=O)N[C@@H]([C@@H](C)CC)C(=O)N(C)CC(=O)N(C)CC(=O)N(C)[C@@H](Cc2ccc(C)cc2)C(=O)N(C)CC(=O)N[C@@H](CCc2cc(F)c(C(F)(F)F)c(F)c2)C(=O)N2CCC[C@H]2C(=O)NC2(CCCC2)C(=O)N(C)[C@@H](C2CCCCC2)C(=O)N(C)[C@H](C(=O)N2CCCC2)CC(=O)N1C [Compound 1197] ([NMeNva]I[Sar][Sar][NMePhe(4-Me)][Sar][hPhe(3,5-F2-4-CF3)]P[Ac5c][NMeChg][NMeD]-Pyrrolidide; lactam N-11) | 20 to 50 nM | 0.6 nM
